Source: PubChem BioAssay (NCI)
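A five-concentration, 48-hour dose response in 96-well plates underlies each endpoint, interpolated linearly between surrounding concentrations. TGI: total growth inhibition.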

Legend:
Experiment in all cases: NCI anticancer screen, dose series, 48 h
[1] = test system: RPMI-8226 leukemia
[2] = test system: SNB-75 CNS
[3] = test system: HL-60(TB) leukemia
[4] = test system: SNB-19 CNS
[5] = test system: MDA-N
[6] = test system: U251 CNS
[7] = test system: ACHN renal
[8] = test system: MDA-MB-435
[9] = test system: PC-3 prostate
[10] = test system: KM12 colon
[11] = test system: CCRF-CEM leukemia
[12] = test system: UO-31 renal
[13] = test system: RXF 393 renal
[14] = test system: HCT-15 colon
[15] = test system: A549 NSCLC
[16] = test system: 786-0 renal
[17] = test system: UACC-257 melanoma
[18] = test system: MCF7 breast
[19] = test system: SF-268 CNS
[20] = test system: EKVX NSCLC
[21] = test system: MOLT-4 leukemia
[22] = test system: OVCAR-8 ovarian
[23] = test system: M14 melanoma
[24] = test system: SK-MEL-2 melanoma
[25] = test system: SK-MEL-5 melanoma
[26] = test system: HOP-62 NSCLC
[27] = test system: IGROV1 ovarian
[28] = test system: UACC-62 melanoma
[29] = test system: K-562 leukemia
[30] = test system: TK-10 renal
[31] = test system: MDA-MB-231 breast
[32] = test system: DU-145 prostate
[33] = test system: HT29 colon
[34] = test system: SF-295 CNS
[35] = test system: OVCAR-5 ovarian
[36] = test system: COLO 205 colon
[37] = test system: HCC-2998 colon
[38] = test system: OVCAR-4 ovarian
[39] = test system: NCI-H460 lung
[40] = test system: CAKI-1 renal
[41] = test system: HS 578T breast
[42] = test system: NCI-H226 lung
[43] = test system: SN12C renal
[44] = test system: NCI/ADR-RES ovarian
[45] = test system: SF-539 CNS
[46] = test system: T-47D breast
[47] = test system: SR leukemia
[48] = test system: SK-MEL-28 melanoma
[49] = test system: SK-OV-3 ovarian
[50] = test system: HCT-116 colon
[51] = test system: SW-620 colon

Measured: TGI

COc1ccc(C(=O)/C=C/c2ccc(OCCCCCCCCCCOc3ccc(/C=C/C(=O)c4ccc(OC)cc4)cc3)cc2)cc1
> 100 µM: all assays above
